Assay [1] relates to LMD9-Δblp::PcomX-luxABΔshp316::P32-cat. Description: Natural transformation in CDM of the shp316-deleted strain upon addition of synthetic peptides (test A). It counts as cell-based, Streptococcus thermophilus. The following applies: for Transformation rate, With peptide addition / Restoration of the competence defect: 1 μM synthetic peptide; for Transformation rate, With peptide addition / Transformation rate: 1 μg/mL pGIUD0855ery; for Transformation rate, With peptide addition: CDM, erythromycin selection. The protocol: A mutant strain of LMD-9 in which the shp316 gene (which is the gene encoding the peptide Shp316) has been inactivated, such as strain LMD9-Δblp::PcomX-luxABΔshp316::P32-cat (see Example 2 for details on this strain) is pre-cultivated in M17-lactose medium. The cells of the preculture are harvested (5000 g, 9 minutes, 20° C.) and washed twice in Chemically Defined Medium (CDM, see Annex I) and then resuspended in CDM. The washed cells are diluted in fresh CDM medium to obtain an optical density of 0.05 at 600 nm, and then incubated at 37° C. After 1.5 h of incubation, the culture is separated in 2 aliquots of 10 mL and 0 or 1000 nM of peptide are added in the culture samples. Finally, each 10 mL-aliquot is divided in 2 samples of 5 mL each. One of the 2 samples receives 1 μg/mL pGIUD0855ery, a plasmid bearing an erythromycin resistance gene. The competence phenotype of the samples is studied by performing natural transformation experiments as described in example 1. The cultures are grown for 6 hours and serial dilutions are plated on the surface of M17-lactose agar medium containing or not 2.5 μg/mL of erythromycin. The transformation rate in the presence or absence of peptide is calculated for each sample; it is expressed as the ratio of erythromycin-resistant cells among the total bacterial population.
The experimental strategy is described below. Strain LMD9-Δblp::PcomX-luxABΔshp316::P32-cat is precultivated in M17-lactose medium. The cells of the preculture were harvested (5000 g, 9 minutes, 20° C.) and washed twice in CDM and then resuspended in CDM. The washed cells are diluted in fresh CDM to obtain an optical density of 0.05 at 600 nm, and then incubated at 37° C. After 1.5 h of incubation, in one set of experiment, 1 μM of one of the tested synthetic peptides and 1 μg/mL of pGIUD0855ery were added to the culture; whereas 1 μg/mL of pGIUD0855ery but no synthetic peptide was added to the second set of experiment. The cultures were grown during 6 hours and serial dilutions were plated on the surface of M17-lactose agar medium containing 2.5 μg/mL of erythromycin to measure transformation efficiency.
Ability of peptides derived from Shp316 to restore the competence defect of LMD9-Δblp::PcomX-luxABΔshp316::P32-cat was further investigated focusing on the synthetic peptide PYFAGCL. Experimental work was performed as described above except that various concentrations of PYFAGCL were used: 0 nM, 1 nM, 10 nM, 100 nM, 500 nM, 1 μM, 2.5 μM and 5 μM. […]

For the next assay, the system named is S. salivarius JIM8777. The experiment in a line: Natural transformation in CDM upon addition of synthetic peptide. It counts as cell-based, Streptococcus salivarius. The protocol: Similarly to the protocol used in example 4, strains LMD-9, LMG18311, CNRZ1066 and JIM8777 were pre-cultivated in M17-lactose medium. The cells of the precultures were harvested (5000 g, 9 minutes, 20° C.) and washed twice in CDM and then resuspended in CDM. The washed cells were diluted in fresh CDM medium to obtain an optical density of 0.05, and then incubated at 37° C. After 1.5 h of incubation, in one set of experiment, 1 μM of one of the tested synthetic peptides and 1 μg/mL of pGIUD0855ery DNA (in case of S. thermophilus strains), or 1 μg/ml of pG+host09 DNA (in case of S. salivarius strains) were added to the culture, whereas 1 μg/mL of DNA but no synthetic peptide was added to the second set of experiment. The cultures were grown during 6 hours and serial dilutions were plated on the surface of M17-lactose agar medium containing 2.5 μg/mL of erythromycin to measure transformation efficiency. Transformed S. thermophilus and S. salivarius cells are selected at 37° C. and 29° C., respectively.
Day 2: • Centrifuge Day 1—culture (centrifugation parameters: 5000 g, 9 minutes, 15° C.) and perform two washing steps with one volume (10 mL) of CDM (centrifugation parameters: 5000 g, 9 minutes, 15° C.). • Dilute the culture in 10 mL CDM to obtain an OD600nm of 0.05. • A small volume of S. thermophilus cultures (300 μL) is then transferred in white microplate with a transparent bottom (655095; Greiner, Alphen aid Rijn, The Netherlands) and is grown at 37° C. Luminescence at 595 nm and optical density at 600 nm are recorded with the automatic Synergy HT multi-mode microplate reader. The luciferase activity catalysed by LuxAB requires the presence of nonanal as substrate. In this experimental set-up, nonanal (Acros Organics ref. 204-688-5) is supplied to the cultures by placing 50 μL of a solution containing 1% nonanal diluted in mineral oil in the spaces between the wells of a covered microplate (11). The nonanal present in the solution will become volatile and there will be an equilibrium between the concentration of nonanal present in the air and in the culture samples. The luminescence and absorbance are scanned every 10 minutes during 6 hours. • To perform a competence experiment, 1 μg of donor DNA is added in the 300 μL samples in the beginning of incubation. […] In case of the sample that received DNA, make different 10-fold dilutions of the sample and plate 100 μL on the same solid selective medium. Check the viability of the cells in the samples by plating 10 μL of serial 10-fold dilutions of the cultures on M17, lactose 1% medium. Transformants are picked following 24 h of incubation at 37° C. in anaerobic conditions (gaspak BBL). […]

Turning to “LPYFAGCL (fragment) [synthetic peptide corresponding to a C-terminal fragment of Shp316]”, in assay [1], the “Transformation rate, With peptide addition” value is on record as 3.18 × 10^−3. Moreover, the “Restoration of the competence defect” value in assay [1] (result in words) is on record as “allowed to restore the competence defect”.

With PYFAGCL (fragment), the Transformation rate is on record as <10^−8 in assay [1] (1 nM PYFAGCL); <10^−8 in assay [1] (10 nM PYFAGCL); 4.14 × 10^−7 in assay [1] (100 nM PYFAGCL); 1.01 × 10^−3 in assay [1] (500 nM PYFAGCL); 5.15 × 10^−3 in assay [1] (1000 nM PYFAGCL); 3.10 × 10^−3 in assay [1] (2500 nM PYFAGCL). For the same substance, the Transformation rate in assay [1] (5000 nM PYFAGCL) is on record as 6.38 × 10^−3. Moreover, the “Transformation rate, With peptide addition” value in assay [1] is 4.78 × 10^−3; in the assay with S. salivarius JIM8777 (1 μM PYFAGCL, 1 μg/mL pG+host9) it was 3.07 × 10^−6. In addition, in assay [1] (result in words), the “Restoration of the competence defect” value is “allowed to restore the competence defect”. Further, in assay [1] (concentrations lower than 100 nM, result in words), the Restoration of competence entry was “did not restore the competence”. The “Concentration at which maximum efficiency of the peptide was recorded” value in assay [1] (dose-response 0 nM to 5 μM) worked out at 1 µM. Besides, the “Complementation of the transformation defect in CDM” value in the assay on S. salivarius JIM8777 (1 μM peptide, result in words) was “complements the transformation defect”.
